Test results: ChEMBL document CHEMBL6115043, “Novel 5,6-Fused and 6,6-Fused Bicyclic Compounds as 15-Prostaglandin Dehydrogenase Modulators” (ACS Med Chem Lett, 2025)

Key:
[1] = target: T1, 15-hydroxyprostaglandin dehydrogenase [NAD(+)] (Homo sapiens, UniProt P15428); experiment: Inhibition of recombinant human 15-PGDH using PGE2 and beta-NAD+ as substrate preincubated for 15 mins followed by substrate addition and measured after 60 mins
T1 sequence (P15428 whole entry): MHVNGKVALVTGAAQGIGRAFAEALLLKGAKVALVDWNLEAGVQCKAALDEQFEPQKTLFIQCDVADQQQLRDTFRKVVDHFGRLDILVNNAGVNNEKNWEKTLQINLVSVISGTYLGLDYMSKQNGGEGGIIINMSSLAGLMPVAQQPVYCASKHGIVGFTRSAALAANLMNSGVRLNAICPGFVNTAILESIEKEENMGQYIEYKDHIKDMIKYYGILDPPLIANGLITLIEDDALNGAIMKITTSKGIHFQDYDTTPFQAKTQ

[2] = target: T1, 15-hydroxyprostaglandin dehydrogenase [NAD(+)]; experiment: Inhibition of 15-PGDH in human A549 cells assessed as increase in IL-1beta-stimulated PGE2 levels measured after 24 hrs by competitive HTRF assay; type: cell-based

Row | IC50 [1] [nM] | IC50 [2] [nM] | SMILES
1 | 0.22 | 0.05 | Cn1cc2cc(-c3ccc4nc([C@H](O)C5CC(F)(F)C5)sc4n3)cnc2n1
2 | – | 0.05 | Cn1cc2cc(-c3ccc4cc([C@]5(O)C[C@@H](C(F)(F)F)C5)sc4n3)cnc2n1
